Experimental data taken from patent publication US8663934B2, “Cloned transmembrane receptor for 24-hydroxylated vitamin D compounds and uses thereof” (Shriners Hospital for Children, priority 2009, dated 2014).
Entries after “also recorded” stand apart in the source; their conditions may differ. Each block holds one molecule with its values, some of them ahead of it.

Experiments:
[1] = test system: Cyp24a1-deficient mice; experiment: Rescue of impaired fracture healing in Cyp24a1-deficient mice (tibial osteotomy); format: in vivo, mouse; conditions: for effect on fracture repair: daily subcutaneous injection, 24,25-(OH)2D3 6.7 μg/kg, 1α,25-(OH)2D3 67 ng/kg
Method: FIG. 2: rescue of impaired fracture repair in Cyp24a1-deficient mice by treatment with 24,25-(OH)2D3. Osteotomy was performed and animals from each genotype were treated daily with vehicle, 1,25-(OH)2D3 (67 ng/kg) or 24,25-(OH)2D3 (6.7 ug/kg). The fracture callus was harvested at 14 days post-osteotomy and bone volume (BV) and tissue volume (TV) were measured by histomorphometry using the BioQuant Osteo image analysis software. WT, wild-type; cyp24a1−/−, mutant mice deficient for the Cyp24a1 gene.
A Cyp24a1-deficient mouse strain was used to determine the role of 24-hydroxylated vitamin D compounds during mammalian fracture repair. In wild-type mice, there is a significant increase in local expression of Cyp24a1 mRNA in the tibiae subjected to an osteotomy as compared to the unfractured contralateral tibiae. To identify the role of this change in gene expression on callus formation, four-month-old wild-type and Cyp24a1-deficient mice were subjected to a stabilized, transverse mid-diaphysial fracture of the tibia. Bones were collected at days 14 and 21 post-fracture and analyzed for histology and gene expression.
Control groups were injected with the vehicle (propylene glycol). […] Daily injection with 24,25-(OH)2D3 normalized the histological appearance of the callus and the measured static histomorphometric index (BV/TV, FIG. 2).

[2] = test system: chickens; conditions: chick fracture, treatment with metabolite alone; cited from earlier work
[3] = biological target: T1, 24-hydroxylated vitamin D compound receptor (FAM57B) (Mus musculus, UniProt Q7TNV1); experiment: [3H]-24,25(OH)2D3 binding assay on membrane fractions of transfected COS-7 cells; conditions: for displacement of [3H]-24,25(OH)2D3 specific binding by excess cold compound: membrane fractions, excess of nonradioactive competitor; for specific binding of radioligand to receptor (saturation): membrane fractions of COS-7 cells expressing FAM57B
T1 construct: The full-length 24-hydroxylated vitamin D compound receptor was subcloned into the pcDNA3.1 expression vector; expressed in transfected cells; host or cells: COS-7 cells, stably transfected (pcDNA3.1)
T1 sequence (Q7TNV1 1-275 isoform Q7TNV1-3): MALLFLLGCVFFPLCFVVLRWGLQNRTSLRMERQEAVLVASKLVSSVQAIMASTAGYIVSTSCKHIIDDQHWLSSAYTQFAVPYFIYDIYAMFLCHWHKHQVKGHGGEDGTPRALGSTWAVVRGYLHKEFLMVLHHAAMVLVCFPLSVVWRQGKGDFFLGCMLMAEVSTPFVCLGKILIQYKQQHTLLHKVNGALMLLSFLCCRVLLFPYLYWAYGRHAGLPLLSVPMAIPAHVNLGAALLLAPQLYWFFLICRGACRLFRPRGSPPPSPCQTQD
Method: Membrane fractions of transfected COS-7 cells are prepared by differential centrifugation (66): cells are homogenized in buffer A (25 mM HEPES, 10 mM NaCl, 1 mM DTT at pH 7.4) and centrifuged at 20,000 g for 10 minutes. The resulting supernatant is then re-centrifuged at 20,000 g for 2×30 minutes. The resulting pellet is resuspended in buffer B (25 mM HEPES, 50 mM NaCl, 5 mM EDTA, 1 mM DTT at pH 7.4) and is used as a membrane fraction for binding assays.
Binding assays are performed on ice for 60 min in buffer B using [^3H]-24R,25(OH)2D3 (50 Ci/mmol; Amersham) in the presence or absence of a 200-fold excess of nonradioactive 24,25(OH)2D3. Bound and free ligand are separated by filtration on glass microfiber filters soaked in buffer B. The filters are rinsed with 10 ml of buffer B and are counted for radioactivity using a scintillation counter (36, 37, 66). Specific binding is then calculated as total binding minus non-specific binding measured in the presence of the excess of nonradioactive ligand.
Saturation binding analysis is performed using 100 μg of membrane fraction and 0.1 to 5 nM of [^3H]-24R,25(OH)2D3 and plotting specific binding as a function of ligand concentration (FIG. 4A). Saturation binding is repeated several times to minimize intra-assay variation and calculate binding affinity with accuracy. Affinity is determined using the saturation binding algorithm of the Prism software (GraphPad Software Inc., LaJolla, Calif.).
Binding specificity is further refined by performing competition binding assays on the membrane fractions with various nonradioactive vitamin D metabolites and other steroids (FIG. 4B). Binding is performed using 1 nM of [^3H]-24R,25(OH)2D3 and 100 μg of membrane fraction. Compete binding is done using 10-200 fold excess of 24,25(OH)2D3 (control displacement curve). Compete binding is also done using 10-200 fold excess of 25(OH)D3, 24S,25(OH)2D3 (the non-natural epimer of 24,25(OH)2D3), 1α(OH)D2, 1α,24(OH)D2, 1,24,25(OH)3D3, as well as dexamethasone, estradiol, and testosterone.

[4] = biological target: T2, 24-hydroxylated vitamin D compound receptor (Mus musculus, UniProt Q7TNV1); experiment: Cellular dielectric spectroscopy (CellKey) in COS7 cells stably transfected with the receptor; format: cell-based; conditions: range of compound concentrations
T2 construct: The full-length 24-hydroxylated vitamin D compound receptor was subcloned into the pcDNA3.1 expression vector; expressed in transfected cells; host or cells: COS-7 cells, stably transfected (pcDNA3.1)
T2 sequence (Q7TNV1 1-275 isoform Q7TNV1-3): T1 sequence (Q7TNV1 1-275 isoform Q7TNV1-3)
Method: FIG. 4. Binding saturation and specificity of the 24-hydroxylated vitamin D compound receptor. A, B. The full-length 24-hydroxylated vitamin D compound receptor was subcloned into the pcDNA3.1 expression vector and expressed by stable transfection into COST cells. Membrane fractions were prepared by differential centrifugation and binding assays were performed using [^3H]-24,25(OH)2D3 in the presence or absence of an excess of nonradioactive 24,25(OH)2D3. Bound and free ligand were separated by filtration on glass microfiber filters. […] C, D. COS7 cells stably transfected with an expression vector for the 24-hydroxylated vitamin D compound receptor were plated in a cellular dielectric spectroscopy apparatus and changes in bioimpedance (dZiec), representative of binding, were measured over a range of compound concentrations. C. Response to vitamin D compounds. D. Response to steroids.
In certain embodiments of the present invention, cellular dielectric spectroscopy is used to ascertain binding specificity (124). The technology is based on applying electrical current to cells within a microplate format and measuring changes in impedance. […] The plate is installed onto the system to obtain a baseline reading. […]
Another method used to ascertain binding specificity is cellular dielectric spectroscopy (124). […] The plate is installed onto the system to obtain a baseline reading. […]

[5] = test system: ATF response element; experiment: ATF response element luciferase reporter (Cignal AARE) in receptor-transfected COS7 cells; format: cell-based; conditions: saturating dose
Method: FIG. 5. Activation of the ATF response element following binding of 24,25(OH)2D to the 24-hydroxylated vitamin D compound receptor. COS7 cells stably transfected with an empty expression vector (vector) or with an expression vector for the 24-hydroxyvitamin D compound receptor (24,25(OH)2D rep) were transiently transfected with a reporter construct in which the luciferase reporter is under the control of an ATF response element. Transfected cells were then treated with ethanol (vehicle) or a saturating dose of 24,25(OH)2D. A renilla luciferase constitutive expression vector was co-transfected to assess efficiency of […]. Results (mean±SEM) are expressed as fold-induction over treatment with vehicle.
In certain embodiments of the present invention where the Cignal Finder reporter system is employed, COS-7 cells stably transfected with the 24-hydroxylated vitamin D compound receptor are seeded in 24-well tissue culture plates (Nunc, Roskilde, Denmark) at a density of 20,000 cells per well in growth medium (high-glucose DMEM with HEPES, 10% FBS, and 400 μg/ml of Geneticin). […] The activity of firefly and renilla luciferases are measured sequentially on a Sirius Luminometer (Berthold Detection Systems GmbH, Pforzheim, Germany). The specific luciferase activity is expressed as the ratio of firefly/renilla luciferase activity. […]

[6] = test system: wild-type mice; conditions: cited from earlier work
[7] = test system: rats; conditions: cited from earlier work
[8] = test system: rat; conditions: rat studies; cited from earlier work

Molecule: C=C1/C(=C\C=C2/CCC[C@]3(C)[C@@H]([C@H](C)CCCC(C)(C)O)CC[C@@H]23)C[C@@H](O)C[C@@H]1O [1α,25-(OH)2D3, reference compound]
effect on fracture repair [1]: no effect
healing (mechanical properties of healed bones) [2]: poor healing

Molecule: CC(C)NCC(O)COc1cccc2ccccc12 (centres unmarked) [propranolol]
bone mass [6]: increase bone mass
bone defects [7]: repair bone defects

B1: parathyroid hormone (protein, UniProt P01270 32-115, looked up)
Parathyroid hormone: SVSEIQLMHNLGKHLNSMERVEWLRKKLQDVHNFVALGAPLAPRDAGSQRPRKKEDNVLVESHEKSLGEADKADVNVLTKAKSQ
modifications: Parathyroid hormone
notes: parathyroid hormone administered in rat fracture studies
fracture repair [8]: improve fracture repair

Further lines, with some results ahead:

displacement of [3H]-24,25(OH)2D3 specific binding by excess cold compound [3]: can be displaced
changes in bioimpedance (dZiec), representative of binding [4]: specifically binds
changes in bioimpedance (dZiec), representative of binding ([4]; listed as 24R,25(OH)2D3): binding activity specific
Molecule: C=C1CC[C@H](O)C/C1=C/C=C1\CCC[C@]2(C)[C@@H]([C@H](C)CC[C@@H](O)C(C)(C)O)CC[C@@H]12 [24,25-(OH)2D3]
type X collagen mRNA expression ([1]; all time points studied): rescued and normalized
histological appearance of the callus ([1]; daily injection 6.7 μg/kg): normalized
static histomorphometric index (BV/TV) ([1]; daily injection 6.7 μg/kg, callus at 14 days post-osteotomy): normalized
effect on fracture repair [1]: rescue; also recorded: corrected
effect on fracture repair ([1]; listed as 24,25(OH)2D3): rescued
luciferase reporter fold-induction over treatment with vehicle [5]: statistically significant

displacement of [3H]-24,25(OH)2D3 specific binding by excess cold compound [3]: not
Molecule: CC(=O)[C@H]1CC[C@H]2[C@@H]3CCC4=CC(=O)CC[C@]4(C)[C@H]3CC[C@]12C [progesterone]

specific binding of radioligand to receptor (saturation) [3]: specific and saturable
specific binding of radioligand to receptor (saturation) ([3]; listed as [^3H]-24,25(OH)2D3): saturable
Molecule: [^3H]-24R,25-(OH)2D3
